The source of these data is patent US9192617B2, “Pharmaceutical composition, methods for treating and uses thereof” (Boehringer Ingelheim International GmbH, priority 2012, dated 2015).

Structures are written as SMILES. “Also recorded” adds a separate entry of the source.

Common to all, as to assay type: in vivo, Female Wistar rats
A short description of experiment [1]: Oral glucose (2 g/kg) tolerance test on Day 30 in DIO rats. As to conditions: for glucose tolerance (glucose AUC): OGTT 2 g/kg after 30 days of treatment, vs vehicle, FIG. 2a; for AUC of insulin during OGTT: OGTT Day 30, FIG. 2b. As for the experimental part:
(§1) In combination studies, sibutramine is dosed once daily with empagliflozin. Orlistat is dosed twice daily: once at the start of the dark phase (in combination with empagliflozin) and again four hours later. Blood samples are taken after approximately 2 and 4 weeks of dosing after a 4 h fast, with the exception of the combination studies with sibutramine and orlistat where samples are taken after an overnight fast. In the studies where empagliflozin is given with either orlistat or sibutramine, animals undergo an oral glucose (2 g/kg) tolerance test on Day 30 after an overnight fast. Blood samples are taken immediately before and 10, 20, 30, 60 and 120 minutes post glucose administration. At the conclusion of each experiment, carcasses are saved for body composition analysis.
(§2) Blood is collected in EDTA-coated collection tubes (Sarstedt) and immediately spun in a cooled centrifuge and the plasma stored frozen. Subsequently, plasma is assayed for content of one or more of the following: glucose, insulin, leptin, glycerol, and triacylglycerol (TAG) content. Blood (collected in an EDTA tube and frozen immediately) is assayed for HbA1c.
(§3) Commercially available enzyme-linked immunosorbent assays (ELISAs) and colorimetric kits are used to assay glucose (Thermo Electron Corp., PA, USA), insulin (Mercodia, Uppsala, Sweden), glycerol and true triglycerides (Sigma, Mo., USA), and leptin (Assay Designs, MI, USA). HbA1c is assayed by a direct enzymatic assay (Diazyme, CA, USA).
(§4) Plasma data are analysed by a general linear model with treatment as a factor. Where appropriate, data undergo a log transformation prior to analysis. Baseline plasma data and Day 1 body weight are included as covariates. HbA1c data are analysed by a robust regression model using M estimation (Huber weighting, using the default parameter c=1.345). Baseline HbA1c levels and Day 1 body weight are included as covariates. Since no differences are observed between the two and four week changes in plasma parameters, only the final plasma data for each study is detailed.

Experiment [2] can be described thus: Carcass body composition (FoodScan NIR) of DIO rats at study conclusion. The note with it: FIG. 3b. As for the experimental part:
Carcass composition (body fat, protein and water) is determined using the FoodScan NIR (near infra-red) meat analyser (Foss, UK). Carcasses are milled at the temperature of liquid nitrogen and stored at −20° C. in sealed containers.
Carcass composition data are analysed by robust regression with treatment as factors. Day 1 body weight is included as a covariate.

A short description of experiment [3]: Plasma metabolic parameters on Day 30 in DIO rats. The note with it: FIG. 3a; for plasma glucose / plasma insulin: after 30 days of treatment, vs vehicle; for plasma leptin: Day 30, overnight fast. The procedure:
as §1, §2, §3, §4

Experiment [4] is described as follows: Body weight in diet-induced obese (DIO) rats, chronic oral dosing. As to conditions: Day 29, FIG. 1. As for the experimental part: Female Wistar rats (weight range 250-300 g upon arrival) are obtained from Charles River (Margate, Kent) and housed in pairs or threes at a temperature of 21±4° C. and 55±20% humidity. Animals are maintained on a reverse phase light-dark cycle (lights off for 8 h from 09.30-17.30 h) during which time the room is illuminated by red light. Animals have free access to powdered high fat diet (VRF1 plus 20% lard; Special Diet Services (SDS), Witham, UK), ground chocolate (Cadbury's Dairy Milk®), ground peanuts (Big D®, Trigon Snacks Ltd.) and tap water at all times unless specified otherwise. Animals are housed for 20-24 weeks for the induction of obesity. The work reported in this manuscript is performed in accordance with UK law as detailed in the Animals (Scientific Procedures) Act 1986.
Approximately two weeks before the start of the studies, animals are housed singly in polypropylene cages with wire grid floors (so food spillage could be determined). Each cage contains an appropriate amount of paper bedding for warmth, environmental enrichment and to provide an area for animals to get off the wire grid floor. […]
Statistical analysis is performed by a Statistician. Body weight and food and water intake data are assessed by analysis of covariance (ANCOVA) with treatment as a factor, and baseline data as the covariate. […]

As to `OC[C@H]1O[C@@H](c2ccc(Cl)c(Cc3ccc(O[C@H]4CCOC4)cc3)c2)[C@H](O)[C@@H](O)[C@@H]1O` [empagliflozin, 1-chloro-4-(β-D-glucopyranos-1-yl)-2-[4-((S)-tetrahydrofuran-3-yloxy)-benzyl]-benzene], in experiment [1], the “glucose tolerance (glucose AUC)” value is on record as “improve glucose tolerance”; the “AUC of insulin during OGTT” value is “reduced significantly; also recorded: significant reductions in the glucose and insulin AUC”. The “glucose tolerance (glucose AUC)” value in experiment [1] (listed as Empagliflozin) is “significantly improve glucose tolerance”. Besides, the body composition entry in experiment [2] is listed as “does not significantly affect body composition”. Also, in experiment [3], the plasma glucose result was “significantly reduces plasma glucose” and the plasma insulin entry is reported as “significantly reduce plasma insulin; also recorded: either a small effect to reduce plasma insulin or no impact”.
Consider `CCCCCCCCCCC[C@@H](C[C@@H]1OC(=O)[C@H]1CCCCCC)OC(=O)[C@H](CC(C)C)NC=O` [orlistat], for which, in experiment [1], the “glucose tolerance (glucose AUC)” value is listed as “does not significantly affect glucose tolerance” and the “AUC of insulin during OGTT” value is recorded as “not significantly decreased”. Further, the “weight loss compared with vehicle-treated controls” value in experiment [4] turned out to be 2.4%. The “carcass fat / body fat” value in experiment [2] was “significantly and selectively reduce carcass fat”. The plasma leptin result in experiment [3] was “reduce plasma leptin”.
For `CC(C)CC(N(C)C)C1(c2ccc(Cl)cc2)CCC1` (stereo not drawn) [sibutramine], in experiment [1], the “glucose tolerance (glucose AUC)” value was “significantly improve glucose tolerance”; the “AUC of insulin during OGTT” value was “significant reductions in the glucose and insulin AUC”. Also, the “weight loss compared with vehicle-treated controls” value in experiment [4] was determined as 7.0%. Further, the “carcass fat / body fat” value in experiment [2] is “significantly and selectively reduce carcass fat”. In experiment [3], the plasma leptin entry was “reduce plasma leptin”, the plasma glucose entry is recorded as “significantly reduces plasma glucose” and the plasma insulin entry is “significantly reduce plasma insulin; also recorded: reduces plasma insulin”.
